The values below come from patent US12208228B2, “Microneedle array comprising a heat-producing element” (LTS LOHMANN THERAPIE-SYSTEME AG, priority 2019, dated 2025).

A short description of the data set: In vitro permeation studies in static vertical Franz cells, microneedle systems pressed into dermatomized minipig skin. The data set is classed as in vitro ADME, Göttingen Minipigs. An excerpt: The back part of Gottinger Minipighaut (Ellegaard Göttingen Minipigs Agricultural Service, Dalmose, Denmark) was used as the skin. The skin, which is delivered as a so-called full skin without subcutaneous fatty tissue in a frozen state, must first be thawed at room temperature and carefully shaved with plenty of water without using any shaving foam to remove the bristles. The skin is then dermatomized or cut to a layer thickness of 800 μm with the aid of an Acculan 3TI battery-powered electric dermatome (Aesculap AG, Tuttlingen, Germany). Circular punched pieces having a diameter of 25 mm are then knocked out of the pieces of skin treated in this way with the help of a corresponding punching tool, for example, a handle punch and are stored shrink-wrapped in PE bags until further use at −20 degrees Celsius (maximum storage period under these conditions up to 12 months).
The permeation studies were performed in static and vertical Franz cells (Glastechnik Gräfenroda, Germany) with a diffusion area of 1.595 cm^2 and an acceptor volume of 10 ml. The acceptor medium used was phosphate buffer having a pH value of 7.4 according to DAB 10, tempered to 32° C. during the entire permeation time and constantly stirred for uniform mixing of the permeated active ingredient. The acceptor medium was completely replaced by fresh one at the scheduled sampling times. Before the pre-prepared skin punches are clamped in the Franz cells and filled with acceptor, the microneedle systems must first be pressed into the top layer of skin using a manufactured pressure adapter, in the sense of a nail gun with an impulse strength of 150 N/cm^2.
Before filling with the acceptor and inserting the Franz cells into the water bath controlled to a temperature of 32° C., the temperature-controlled cell heads are put on or they are prepared with an active heat pack mixture, see also the figures including explanations.
The analytical determination was carried out by means of HPLC on a C18-Inertsil separation column (250×4.6 mm, 5 μm particle size; VDS Optilab, Berlin) by means of UV detection at 282 nm and at 30 degrees Celsius. A mixture consisting of acetonitrile, methanol and 0.02167 m sodium dihydrogen phosphate solution 10:20:85 (v %/v %/v %) and a pH of 3.2 was used as the eluent. The flow rate was 1.0 ml/min and 20 μl were injected.
The analytical determination was carried out by means of HPLC on a C12-Synergi-Max-RP separation column (150×4.6 mm, 4 μm particle size; Phenomenex, Aschaffenburg) by means of UV detection at 273 nm and at 25 degrees Celsius. A mixture consisting of methanol and HPLC water 40:60 (v %/v %) was used as an eluent. The flow rate was 1.0 ml/min and 20 μl were injected.

On to `CNS(=O)(=O)Cc1ccc2[nH]cc(CCN(C)C)c2c1` [sumatriptan succinate, Sumatriptan succinate], for which the lag time is 20 min (FIG. 2, inventive example with external heat generation (heatable thermostated-water cell head), period up to 6 hours); 40 min (FIG. 2, reference system without additional heat generation, period up to 6 hours); 0.5 min (FIG. 3, inventive example with external heat generation (heatable thermostated-water cell head), period of 60 minutes); 1.0 min (FIG. 3, reference system without additional heat generation, period of 60 minutes); 0.1 min (FIG. 4, inventive example with heat from commercial heat pack (Thermopad; pyrophoric iron, activated carbon, sodium chloride), period up to 6 hours); 0.4 min (FIG. 4, reference system without additional heat generation, period up to 6 hours). For the same compound, the “amount or rate of release of API, factor greater than that of the reference” value reads like this: (FIG. 2, inventive example with heat (heatable cell head) vs reference without heat, up to 6 hours) about 5; (FIG. 3, inventive example with heat (heatable cell head) vs reference without heat, 60 minutes) about 4; (FIG. 4, inventive example with commercial heat pack vs reference without heat, up to 6 hours) about 8. Moreover, the “lag time of reference larger than inventive example by a factor” value came out at 2 (FIG. 2, reference without heat vs inventive example with heat); 2 (FIG. 3, reference without heat vs inventive example with heat); 4 (FIG. 4, reference without heat vs inventive example with heat pack).

With `Cn1c(=O)c2c(ncn2C)n(C)c1=O` [caffeine, Caffeine], the lag time by setting is: (FIG. 5, inventive example with external heat generation (heatable thermostated-water cell head), period of 8 hours) 40 min; (FIG. 5, reference system without additional heat generation, period of 8 hours) 100 min. Also, the “amount or rate of release of API, factor greater than that of the reference” value (FIG. 5, inventive example with heat (heatable cell head) vs reference without heat, 8 hours) is given as about 2. For the setting “FIG. 5, reference without heat vs inventive example with heat”, the “lag time of reference larger than inventive example by a factor” value worked out at 2.5.
